US20240252581A1, “COMPOSITIONS AND METHODS FOR TREATING RESPIRATORY DISTRESS” (S.I.S. SHULOV INNOVATIVE SCIENCE LTD., priority 2021, published 2024)
“And” between values parts separate entries of the source, which are not always exact repeats. Equal values may be shown once. Square brackets hold non-standard residues; d marks the D form. Peptide text beside a SMILES is read from it. * marks the point of attachment. pGlu = O=C1CC[C@@H](C(=O)O)N1; Octanoyl = CCCCCCCC(=O)*

Key:
[1] = Oxygen saturation in mouse model of LPS-inflamed lungs (Rodent Pulse Oximeter); format: in vivo, Balb/C female mice; conditions: for Oxygen saturation, group mean: mean of 10 mice; for Oxygen saturation, individual mouse: single animals
Method: Evaluation of the effect of ZEP3Na administration via inhalation on oxygen saturation in a mouse model of inflamed lungs by the lipopolysaccharides (LPS) was performed. Oxygen saturation testing was performed at several time points on mice that have been anesthetized by isoflurane. A sensor was attached to the hind foot of the mice and the percentage of oxygen in the blood was measured using the Rodent Pulse Oximeter instrument (Kent Scientific).
Following LPS intratracheal instillation, a marked reduction in blood oxygen saturation levels was detected. ZEP3Na was then administered by inhalation at two doses 6 h and 14 h after LPS administration and the effect of ZEP3Na on blood oxygen saturation was monitored 0, 2, 6, 12, 24 and 48 hours following ZEP3Na administration. Saturation data was analyzed by ANOVA followed by Tukey-Kramer test. Significance level was defined as ∝=0.05.

[2] = test system: ACE2 mRNA; assay: Relative ACE2 mRNA expression in lung tissue (real-time quantitative PCR); format: in vivo, mouse; conditions: in relation to rplO gene
Method: In order to test the efficacy of ZEP3 sodium on lung inflammation, the lipopolysaccharide (LPS)-induced acute lung injury model was used. In particular, LPS was administered intratracheally at doses of 10 or 40 mg/kg body weight (BW) corresponding to 0.2 or 0.8 mg/mouse, respectively.
Relative ACE2 mRNA expression in lung tissue was determined as follows: mRNA was extracted from lung tissues, real-time quantitative PCR was employed, and expression of ACE2 gene in relation to rplO gene was measured.

[3] = Group 2: LPS 800 μg + ZEP3Na 10 mg by inhalation at 6 h, time point 0 h
[4] = Group 2: LPS 800 μg + ZEP3Na 10 mg by inhalation at 6 h, time point 2 h
[5] = Group 2: LPS 800 μg + ZEP3Na 10 mg by inhalation at 6 h, time point 6 h
[6] = Group 2: LPS 800 μg + ZEP3Na 10 mg by inhalation at 6 h, time point 12 h
[7] = Group 2: LPS 800 μg + ZEP3Na 10 mg by inhalation at 6 h, time point 24 h
[8] = Group 2: LPS 800 μg + ZEP3Na 10 mg by inhalation at 6 h, time point 48 h
[9] = Group 3: LPS 800 μg + ZEP3Na 10 mg by inhalation at 6 h + 14 h, time point 0 h
[10] = Group 3: LPS 800 μg + ZEP3Na 10 mg by inhalation at 6 h + 14 h, time point 2 h
[11] = Group 3: LPS 800 μg + ZEP3Na 10 mg by inhalation at 6 h + 14 h, time point 6 h
[12] = Group 3: LPS 800 μg + ZEP3Na 10 mg by inhalation at 6 h + 14 h, time point 12 h
[13] = Group 3: LPS 800 μg + ZEP3Na 10 mg by inhalation at 6 h + 14 h, time point 24 h
[14] = Group 3: LPS 800 μg + ZEP3Na 10 mg by inhalation at 6 h + 14 h, time point 48 h
[15] = Group 4: LPS 800 μg + ZEP3Na 50 mg by inhalation at 6 h, time point 0 h
[16] = Group 4: LPS 800 μg + ZEP3Na 50 mg by inhalation at 6 h, time point 2 h
[17] = Group 4: LPS 800 μg + ZEP3Na 50 mg by inhalation at 6 h, time point 6 h
[18] = Group 4: LPS 800 μg + ZEP3Na 50 mg by inhalation at 6 h, time point 12 h
[19] = Group 4: LPS 800 μg + ZEP3Na 50 mg by inhalation at 6 h, time point 24 h
[20] = Group 4: LPS 800 μg + ZEP3Na 50 mg by inhalation at 6 h, time point 48 h
[21] = Group 5: LPS 800 μg + ZEP3Na 50 mg by inhalation at 6 h + 14 h, time point 0 h
[22] = Group 5: LPS 800 μg + ZEP3Na 50 mg by inhalation at 6 h + 14 h, time point 2 h
[23] = Group 5: LPS 800 μg + ZEP3Na 50 mg by inhalation at 6 h + 14 h, time point 6 h
[24] = Group 5: LPS 800 μg + ZEP3Na 50 mg by inhalation at 6 h + 14 h, time point 12 h
[25] = Group 5: LPS 800 μg + ZEP3Na 50 mg by inhalation at 6 h + 14 h, time point 24 h
[26] = Group 5: LPS 800 μg + ZEP3Na 50 mg by inhalation at 6 h + 14 h, time point 48 h
[27] = administration by inhalation, 800 μg LPS

In the case of `CCCCCCCC(=O)NCCCC[C@H](NC(=O)[C@H](Cc1c[nH]c2ccccc12)NC(=O)[C@H](CC(N)=O)NC(=O)[C@@H]1CCC(=O)N1)C(=O)O` [ZEP3Na, pGlu-Asn-Trp-Lys(Octanoyl)-ONa] ([pGlu]NWK(Octanoyl)-OH), the “Oxygen saturation, group mean” value [1, 3] is reported as 97.2%, the “Oxygen saturation, individual mouse” value [1, 3] is reported as 99% (4×) and 93% and 97% and 98% (2×) and 95% (2×) and the “Oxygen saturation, group mean” value [1, 4] is reported as 70.0%. For the same molecule, the “Oxygen saturation, individual mouse” value [1, 4] was 77% and 67% and 78% (2×) and 61% and 71% and 59% and 72% and 74% and 63%, the “Oxygen saturation, group mean” value [1, 5] was 86.2% and the “Oxygen saturation, individual mouse” value [1, 5] was 81% and 88% (2×) and 87% (2×) and 91% and 82% and 84% and 85% and 89%. For the same molecule, the “Oxygen saturation, group mean” value [1, 6] was 93.5%, the “Oxygen saturation, individual mouse” value [1, 6] was 92% (2×) and 96% and 95% (2×) and 93% and 90% and 94% (3×) and the “Oxygen saturation, group mean” value [1, 7] was 89.0%. For the same molecule, the “Oxygen saturation, individual mouse” value [1, 7] was 86% (2×) and 87% and 89% and 88% and 90% (2×) and 83% and 92% and 99%, the “Oxygen saturation, group mean” value [1, 8] was 92.9% and the “Oxygen saturation, individual mouse” value [1, 8] was 91% (5×) and 94% and 97% (3×) and 89%. The “Oxygen saturation, group mean” value [1, 9] was 96.2%, the “Oxygen saturation, individual mouse” value [1, 9] was 97% (2×) and 96% and 99% (2×) and 94% (2×) and 93% and 95% and 98% and the “Oxygen saturation, group mean” value [1, 10] was 71.1%. For the same molecule, the “Oxygen saturation, individual mouse” value [1, 10] was 70% and 68% and 71% (2×) and 80% and 73% and 64% and 75% and 62% and 77%, the “Oxygen saturation, group mean” value [1, 11] was 87.1% and the “Oxygen saturation, individual mouse” value [1, 11] was 86% (2×) and 88% (2×) and 89% (2×) and 92% and 81% and 82% and 90%. The “Oxygen saturation, group mean” value [1, 12] was 92.5%, the “Oxygen saturation, individual mouse” value [1, 12] was 92% (2×) and 90% (2×) and 94% and 97% and 95% and 88% and 91% and 96% and the “Oxygen saturation, group mean” value [1, 13] was 92.1%. The “Oxygen saturation, individual mouse” value [1, 13] was 96% (2×) and 94% and 88% and 86% and 93% (3×) and 92% and 90%, the “Oxygen saturation, group mean” value [1, 14] was 93.0% and the “Oxygen saturation, individual mouse” value [1, 14] was 91% (4×) and 92% (2×) and 97% (2×) and 94% (2×). The “Oxygen saturation, group mean” value [1, 15] was 97.2%, the “Oxygen saturation, individual mouse” value [1, 15] was 95% (3×) and 97% (3×) and 99% (4×) and the “Oxygen saturation, group mean” value [1, 16] was 72.7%. For the same molecule, the “Oxygen saturation, individual mouse” value [1, 16] was 69% and 81% and 72% (2×) and 73% and 79% (2×) and 65% and 66% and 71%, the “Oxygen saturation, group mean” value [1, 17] was 86.7% and the “Oxygen saturation, individual mouse” value [1, 17] was 86% (3×) and 90% and 88% (2×) and 87% (2×) and 85% and 84%. For the same molecule, the “Oxygen saturation, group mean” value [1, 18] was 94.5%, the “Oxygen saturation, individual mouse” value [1, 18] was 93% and 89% and 94% (3×) and 95% and 96% (3×) and 98% and the “Oxygen saturation, group mean” value [1, 19] was 94.0%. The “Oxygen saturation, individual mouse” value [1, 19] was 93% (2×) and 94% and 95% (2×) and 90% and 99% and 92% (2×) and 97%, the “Oxygen saturation, group mean” value [1, 20] was 97.0% and the “Oxygen saturation, individual mouse” value [1, 20] was 93% and 95% and 98% (5×) and 99% and 97% and 96%. For the same molecule, the “Oxygen saturation, group mean” value [1, 21] was 96.6%, the “Oxygen saturation, individual mouse” value [1, 21] was 97% (3×) and 94% (2×) and 96% and 99% (2×) and 98% and 95% and the “Oxygen saturation, group mean” value [1, 22] was 71.8%. The “Oxygen saturation, individual mouse” value [1, 22] was 63% and 71% and 69% and 92% and 73% and 75% and 72% and 76% and 66% and 61%, the “Oxygen saturation, group mean” value [1, 23] was 86.8% and the “Oxygen saturation, individual mouse” value [1, 23] was 88% (2×) and 90% and 84% and 89% and 86% (2×) and 85% (2×) and 87%. The “Oxygen saturation, group mean” value [1, 24] was 94.0%, the “Oxygen saturation, individual mouse” value [1, 24] was 92% and 94% (3×) and 90% and 93% and 95% (2×) and 96% and 97% and the “Oxygen saturation, group mean” value [1, 25] was 93.8%. The “Oxygen saturation, individual mouse” value [1, 25] was 90% and 91% (3×) and 93% (2×) and 98% (2×) and 99% and 94%, the “Oxygen saturation, group mean” value [1, 26] was 97.1% and the “Oxygen saturation, individual mouse” value [1, 26] was 99% (3×) and 97% (3×) and 91% and 98% (2×) and 96%. The “elevation in oxygen saturation levels as compared to LPS with no treatment” value [1, 27] was ≤ 20%, the “oxygen saturation levels that have been reduced by LPS” value [1, 27] was “significantly increased” and the “time following treatment at which increase in oxygen saturation is statistically significant” value ([1]; administration by inhalation, LPS model) was 12 h. The animal weight ([1]; throughout the experiment) was “substantially constant”, the “Relative ACE2 mRNA expression (Mean ± SEM)” value ([2]; LPS 0.2 mg + ZEP3 Na 0.1 mg) was 0.672 ± 0.145 and the “Relative ACE2 mRNA expression (Mean ± SEM)” value ([2]; LPS 0.2 mg + ZEP3 Na 0.4 mg) was 1.239 ± 0.132. For the same molecule, the “Relative ACE2 mRNA expression (Mean ± SEM)” value ([2]; LPS 0.8 mg + ZEP3 Na 0.1 mg) was 0.223 ± 0.031, the “Relative ACE2 mRNA expression (Mean ± SEM)” value ([2]; LPS 0.8 mg + ZEP3 Na 0.1 mg, listed as ZEP3 sodium) was 0.22 and the “Relative ACE2 mRNA expression (Mean ± SEM)” value ([2]; LPS 0.8 mg + ZEP3 Na 0.4 mg) was 0.805 ± 0.251. The “Relative ACE2 mRNA expression (Mean ± SEM)” value ([2]; ZEP3 Na 0.1 mg, no LPS) was 1.750 ± 0.320 and the “Relative ACE2 mRNA expression (Mean ± SEM)” value ([2]; ZEP3 Na 0.4 mg, no LPS) was 0.303 ± 0.025.
